# According to publication PMC12527173, “Cytotoxic, anti-inflammatory, antioxidant, and anti-glyoxalase-I evaluation of chelating substances: In silico and in vitro study” (PLOS One, 2025):
# Where two headings read alike, the source gives them in different places.
# Assays:
# Format in all cases: cell-based
# [1] = tested on: A375 human skin cancer cell line; assay: SRB cytotoxicity assay, A375; conditions: A-375, 72 h incubation, n = 12, read-out: Cytotoxicity (as of %Control) IC50 value A375 skin melanoma
# Experimental: (§1) The cancer cell lines were cultured in DMEM supplemented with 10% FBS (Bio Whittaker, Verviers, Belgium), HEPES Buffer (10 mM), gentamicin (50 µg/mL), L-glutamine (100 μg/mL), streptomycin ([…]), penicillin (100 µg/mL), and 4-(2-hydroxyethyl)-1-piperazineethanesulfonic acid (HEPES) Buffer (Sigma, St. Luis, MO, USA). The Sulforhodamine B used was obtained from Santa Cruz Biotechnology, Inc. in Texas, USA. […] Periodontal ligament fibroblasts (PDL) were utilized to assess specific cytotoxicity. Cancer cell lines that have survived offer several benefits. They provide a consistent and uninterrupted source of cells, so bypassing any ethical concerns related to the use of human tissue. Additionally, they are cost-effective. The cytotoxicity levels were assessed using the Sulforhodamine B (SRB) colorimetric assay, provided by Santa Cruz Biotechnology, Inc. in Texas, USA. The Spectro Scan 80D UV-VIS spectrophotometer, manufactured by Sedico Ltd. in Nicosia, Cyprus, was employed for this cytotoxicity screening. The cells were co-incubated with substances or a reference agent at various doses ranging from 5 to 200 μg/mL. […] The reduction in cell viability was analyzed by plotting Dose-response curves and expressing the data as a percentage of the control optical density. The IC50 values were obtained using regression analysis.
# [2] = tested on: HT-29 colorectal cancer cell line; assay: SRB cytotoxicity assay, HT29; conditions: Homo sapiens, 72 h incubation, n = 12, read-out: Cytotoxicity (as of %Control) IC50 value HT29
# Experimental: as §1
# [3] = tested on: SW480 colorectal cancer cell line; assay: SRB cytotoxicity assay, SW480; conditions: Homo sapiens, 72 h incubation, n = 12, read-out: Cytotoxicity (as of %Control) IC50 value SW480
# Experimental: as §1
# [4] = tested on: T47D breast cancer cell line; assay: SRB cytotoxicity assay, T47D; conditions: Homo sapiens, 72 h incubation, n = 12, read-out: Cytotoxicity (as of %Control) IC50 value T47D mammary malignancy
# Experimental: as §1
# [5] = tested on: Breast cancer cell line MCF7; assay: SRB cytotoxicity assay, MCF7; conditions: Homo sapiens, 72 h incubation, n = 12, read-out: Cytotoxicity (as of %Control) IC50 value MCF7 mammary malignancy
# Experimental: as §1
# [6] = tested on: LPS-primed RAW 264.7 murine macrophages (nitrite / iNOS); assay: Anti-inflammatory (nitrite) determination in LPS-primed macrophages; conditions: Mus musculus, read-out: iNOS- IC50 value
# Experimental: The RAW 264.7 mouse macrophage cell line (ATCC® TIB-71) was cultivated in high glucose DMEM with 10% foetal bovine serum (FBS), 100 U/mL penicillin, 100 μg/mL streptomycin, and 100 μg/mL L-glutamate. The cells were incubated at 37°C in a humidified environment with 95% air and 5% CO2. Confluent macrophages (2 x 10^5/well) were cultured with lipopolysaccharide (LPS; 20 μg/mL; Sigma, St. Luis, MO, USA) and indomethacin (25–200 μg/mL) as the positive control, along with various concentrations (5–200 μg/mL) of treatment compounds. The cells were incubated for 24 hours. 100 μL of Griess reagent were combined with 100 μL portions of cell culture medium and left to incubate at room temperature for 10 minutes. The absorbance at a wavelength of 550 nm was measured using a microplate reader, namely the Spectro Scan 80D UV-VIS spectrophotometer manufactured by Sedico Ltd. in Nicosia, Cyprus. The nitrite concentration was assessed by comparing it to a standard curve of sodium nitrite. A cytotoxicity protocol using SRB was conducted to assess the impact of the test substances under study on RAW 264.7 viability.
# [7] = tested on: cancer cell lines (panel); assay: SRB cytotoxicity assay, ranges stated over several cancer cell lines; conditions: Homo sapiens
# Experimental: as §1
# [8] = RAW264.7, LPS-primed RAW 264.7, nitrite by Griess, 24 h, n = 12
SMILES,IC50 [1],IC50 [2],IC50 [3],IC50 [4],IC50 [5],"IC50 [6, 8]","IC50 ([6]; RAW264.7, 24 h)","IC50 ([7]; Pancreatic cancer cell, after 72 hours of incubation, read-out: IC50, colorectal and pancreatic cancer cells)","IC50 ([7]; A375, A549, PC3, MCF7, T47D, HeLa, read-out: IC50 range, decreases in viability in other cancer cell cultures)","IC50 ([7]; CACO2, HCT116, SW620, HT29, read-out: IC50 range, anti-proliferation in colorectal cancer cells)","IC50 ([7]; Table 3 cell lines, read-out: IC50, skin melanoma, lung carcinoma, mammary and cervix adenocarcinomas)"
C[C@]12CC[C@@H]3c4ccc(O)c(O)c4CC[C@H]3[C@@H]1CC[C@@H]2O [4-hydroxy-estradiol],47.1 ± 1.9 µM,118 ± 4.17 µM,109 ± 6.86 µM,51.5 ± 5.2 µM,139.8 ± 1.13 µM,250 ± 40 nM,–,–,–,–,–
O=c1cc(O)cc(/C=C/c2ccc(O)c(O)c2)o1 [Hispidin],98.9 ± 9 µM,82.75 ± 0.78 µM,34.6 ± 3.11 µM,52.6 ± 0.69 µM,384 ± 7.57 µM,3470 ± 490 nM,–,–,–,–,–
O=C1c2ccc(O)c(O)c2C(=O)c2c(O)ccc(O)c21 [Quinalizarin],48.6 ± 1.8 µM,144 ± 15.6 µM,118 ± 3.04 µM,37.7 ± 4.78 µM,33.2 ± 0.78 µM,1850 ± 340 nM,–,–,–,–,–
CC(C)=CC[C@@H](O)C1=CC(=O)c2c(O)ccc(O)c2C1=O [Shikonin],56.5 ± 6.9 µM,142.3 ± 0.76 µM,41.6 ± 6.37 µM,30.9 ± 3.66 µM,37.8 ± 3.89 µM,–,270 ± 50 nM,–,–,–,–
"Cc1ccc(C(=O)c2cc(O)c(O)c([N+](=O)[O-])c2)cc1 [Tolcapone, reference compound]",64.1 ± 1.1 µM,63.3 ± 1.03 µM,165 ± 6.58 µM,26.9 ± 0.35 µM,25.6 ± 1.49 µM,1190 ± 170 nM,–,–,–,–,–
"CC(/C=C/C(=O)NO)=C\[C@@H](C)C(=O)c1ccc(N(C)C)cc1 [Trichostatin A, reference compound]",5.6 ± 0.6 µM,27 ± 0.85 µM,44.3 ± 4.67 µM,14.7 ± 0.28 µM,2.25 ± 0.49 µM,1690 ± 120 nM,–,≤ 27 µM,1.4 to 14.7 µM,14 to 27 µM,< 10 µM
